In assay [1] the test system is Bacillus subtilis. Kind of assay: Antibacterial activity against Bacillus subtilis ATCC 6051 assessed as bacterial growth inhibition. The assay is classed as functional.
Assay [2] concerns Staphylococcus. Kind of assay: Antibacterial activity against methicillin-resistant coagulase-negative Staphylococcus assessed as bacterial growth inhibition. In kind it is functional.
For assay [3], the system named is K562. Kind of assay: Cytotoxicity against human K562 cells by MTT assay. In kind it is functional, cell-based.
Assay [4] concerns Staphylococcus aureus. Kind of assay: Antibacterial activity against Staphylococcus aureus ATCC 29213 assessed as bacterial growth inhibition. The assay is classed as functional.
In assay [5] the test system is Pseudomonas aeruginosa. Kind of assay: Antibacterial activity against Pseudomonas aeruginosa ATCC 27853 assessed as bacterial growth inhibition. The assay is classed as functional.
The subject of assay [6] is NCI-H446. The experiment in a line: Cytotoxicity against human NCI-H446 cells by SRB assay. The assay is classed as functional, cell-based. Background: The SRB assay estimates cell density from bound dye.
Assay [7] in a line: Cytotoxicity against human H446/EP cells by SRB assay. The assay is classed as functional, cell-based.
The test system of assay [8] is ASPC1. Kind of assay: Cytotoxicity against human ASPC1 cells by SRB assay. The assay is classed as functional, cell-based.
For assay [9], the system named is Acinetobacter baumannii. The experiment in a line: Antibacterial activity against Acinetobacter baumannii AB34 assessed as bacterial growth inhibition. The assay is classed as functional.
Assay [10] has as its system Bacillus cereus. The experiment in a line: Antibacterial activity against Bacillus cereus ATCC 4342 assessed as bacterial growth inhibition. In kind it is functional.
In assay [11] the test system is MDA-MB-231. The experiment in a line: Cytotoxicity against human MDA-MB-231 cells by SRB assay. The assay is classed as functional, cell-based.
Assay [12] relates to Staphylococcus aureus. Kind of assay: Antibacterial activity against methicillin-resistant Staphylococcus aureus assessed as bacterial growth inhibition. The assay is classed as functional.

SMILES strings stand for the structures. ≈ marks a conversion by molar mass, not a printed value. Counter-ions that a name gives are not always drawn.

As for `COc1cc(O)ccc1N/N=C1\C(=O)C=C(Cc2ccccc2)NC1=O`, the MIC (usually the lowest concentration that inhibits growth of the organism) was more than 150 µg/mL in [1]; more than 150 µg/mL in [2]; 32 µg/mL (≈ 91.1 µM) in assay [4]; more than 150 µg/mL in assay [5]; more than 150 µg/mL in [9]; more than 150 µg/mL in assay [10]. The minimum inhibitory concentration (MIC) in assay [12] is more than 150 µg/mL. Besides, the half-maximal inhibitory concentration (IC50) – broadly, the concentration needed to halve the response being measured – in assay [3] is more than 15 µM; in [6], 4.1 µM; in [7], more than 15 µM; in assay [8], more than 15 µM; in assay [11] it was more than 15 µM.

Consider `COc1cc(O)ccc1N/N=C1/C=Cc2cc(O)cc(O)c2C1=O`, for which the MIC in assay [1] is 128 µg/mL (≈ 392 µM); in assay [2], 64 µg/mL (≈ 196 µM); in assay [4], 128 µg/mL (≈ 392 µM); in assay [5], more than 150 µg/mL; in [9], more than 150 µg/mL; in assay [10], 128 µg/mL (≈ 392 µM). Besides, the MIC in [12] worked out at 64 µg/mL (≈ 196 µM). Moreover, the IC50 in [3], in [6], in [7], in assay [8] and in assay [11] was more than 15 µM throughout.

`COc1cc(O)ccc1N/N=C1/C=Cc2cccc(O)c2C1=O`: the MIC was 128 µg/mL (≈ 412 µM) in [1]; 128 µg/mL (≈ 412 µM) in assay [2]; 128 µg/mL (≈ 412 µM) in [4]; more than 150 µg/mL in assay [5]; more than 150 µg/mL in [9]; 128 µg/mL (≈ 412 µM) in assay [10]. Moreover, the MIC in assay [12] was determined as 128 µg/mL (≈ 412 µM). The IC50 in assay [3], in assay [6], in assay [7], in assay [8] and in assay [11] was more than 15 µM in each case.

Regarding `COc1cc(O)ccc1N/N=C1/C(=O)[C@@](C)(OC(=O)c2c(C)cc(O)cc2O)C(=O)C2=C1C=C(/C=C/C(=O)O)OC2`, the MIC is more than 150 µg/mL in assay [1]; more than 150 µg/mL in assay [2]; 64 µg/mL (≈ 113 µM) in [4]; more than 150 µg/mL in [5]; more than 150 µg/mL in assay [9]; more than 150 µg/mL in assay [10]. Also, in assay [12], the MIC was more than 150 µg/mL. For the same compound, the IC50 was more than 15 µM in assay [3]; 10.2 µM in assay [6]; more than 15 µM in assay [7]; more than 15 µM in [8]; more than 15 µM in assay [11].

With `O=C(O)c1cn(C2CC2)c2cc(N3CCNCC3)c(F)cc2c1=O` [CIPROFLOXACIN], the MIC in assay [1] came out at 0.63 µg/mL (≈ 1.9 µM); in [2], 4 µg/mL (≈ 12.1 µM); in assay [9] it was 16 µg/mL (≈ 48.3 µM); in [10] it was 0.063 µg/mL (≈ 0.19 µM).

For the compound `COc1cccc2c1C(=O)c1c(O)c3c(c(O)c1C2=O)C[C@@](O)(C(=O)CO)C[C@@H]3O[C@H]1C[C@H](N)[C@H](O)[C@H](C)O1` [DOXORUBICIN HYDROCHLORIDE], the half-inhibitory concentration (IC50) in [6] came out at 0.6 µM; in [7], 6 µM; in [8], 0.21 µM.
